Laboratory results taken from PubChem BioAssay AID1963846 (Molecular Pharmacology Branch, DTP, NCI, 2024).
Several values for one entry are separate records, joined by “and”; a condition that tells them apart may be missing. Equal values may be shown once.

Tested on: 454973-116-R2-J3-PDC complex spheroid viability
Assay: Anticancer human tumor 454973-116-R2-J3-PDC patient-derived pancreatic carcinoma cell line growth inhibition [POLQ]
Conditions: for viability, T/C: stronger effect = lower value
Description: Multicellular complex tumor spheroid response to Polymerase (POL) inhibitors (novobiocin, ART-558, RP6685) in combination with a variety of drugs and investigational agents in selected tumor cell lines
The POL inhibitors (novobiocin, ART-558, and RP6685) were evaluated both individually and in combination with standard of care and investigational anticancer small molecules within a complex spheroid model of solid tumors. . Complex spheroids include a stromal component modeled by human endothelial cells (HUVEC) and fibroblasts modeled by human mesenchymal stem cells (MSCs). The concentration ranges selected for each drug and investigational agent were based upon clinically achievable concentrations if the clinical Cmax of the agent was known.
Compounds. The drugs and investigational agents: novobiocin (NSC847541), ART-558 (NSC835418), RP-6685 (NSC848927), peposertib (NSC802822), ceralasertib (NSC780249), elimusertib (NSC800525), camonsertib (NSC841442), AZD-1390 (NSC803789), olaparib (NSC753686), talazoparib (NSC767125), rucaparib (NSC756644), sotorasib (NSC818433), MRTX-1133 (NSC836407), SN-38 (NSC673596), topotecan (NSC609699), epotoside (NSC141540), doxorubicin (NSC123127), gemcitabine (NSC613327), 5-fluorouracil (NSC19893), paclitaxel (NSC125973), vemurafenib (NSC761431), MSA-2 (NSC828583), SN-011 (NSC837082), adavosertib (NSC754352), prexasertib (NSC758257), carboplatin (NSC241240) and oxaliplatin (NSC266046), were obtained from the National Cancer Institute (NCI) Developmental Therapeutics Program Chemical Repository (21). The FDA-approved anticancer drug set is available from the Developmental Therapeutics Program at https://dtp.cancer.gov/organization/dscb/obtaining/. […] The stock solutions were prepared in dimethyl sulfoxide (DMSO, Sigma-Aldrich, St. Louis, MO, cat. D2650), except for the platinum compounds which were prepared in saline (Quality Biological, Gaithersburg, MD, cat. 114-055-101), at 800-fold the tested concentration and stored at -70 degrees C prior to their use. All drugs and investigational agents were tested over a range starting from a high concentration at or near the clinical Cmax and decreasing in half-log increments. If the clinical Cmax for an agent had not been determined, the highest concentration tested was 10 microM, except for SN-38, which was tested at a high concentration of 1 microM.
Cell Culture. All cells were maintained in an incubator at 37 degrees C and 5% CO2 with 95% humidity. The PDC lines were cultured according to standard operating procedures established by the NCI PDMR (https://pdmr.cancer.gov). Table 3 of the manuscript, lists the cell lines along with the number of the three cell types plated to form the mct-spheroids and media for tumor cell growth. After thawing, all PDC lines, except 997537-175-T-J1-PDC and 415267-285-R-J2-PDC, were cultured in Matrigel-coated flasks prepared with a working solution of 1X Ham's F-12 nutrient mix, without supplementation (Thermo Fisher Scientific, cat. 11765054), 100 U/mL penicillin-streptomycin (Thermo Fisher Scientific, cat. 15140122), and 2.5% Matrigel (Corning Inc., Corning, NY, cat. 354248) for the first three passages. The two PDC lines 997537-175-T-J1-PDC and 415267-285-R-J2-PDC were cultured on uncoated flasks. The 857933-349-R-J2-PDC line was cultured in 6C/Colon 1B media containing advanced DMEM/F-12 (Thermo Fisher Scientific, cat. 12634028), 10 mM HEPES (Thermo Fisher Scientific, cat. 15630080), 1X GlutaMAX supplement (Thermo Fisher Scientific, cat. 35050061), 0.1 mg/mL primocin (InvivoGen, San Diego, CA, cat. ant-pm-2), 10% defined fetal bovine serum, heat inactivated (HyClone Laboratories Inc., Logan, UT, cat. SH30070.03HI), 50% L-WRN conditioned media (ATCC, cat. CRL-3276), 1.25 mM N-Acetyl-L-cysteine (Sigma-Aldrich, cat. A9165), 10 mM nicotinamide (Sigma-Aldrich, cat. N0636), 1X B-27 supplement (Thermo Fisher Scientific, cat. 17504044), 1X N-2 supplement (Thermo Fisher Scientific, cat. […]

[1] = curve of first compound, second compound 0.0316 µM
[2] = curve of first compound, second compound 0.1 µM
[3] = curve of first compound, second compound 0.316 µM
[4] = curve of first compound, second compound 1 µM
[5] = curve of first compound, second compound 3.16 µM
[6] = curve of first compound, second compound 10 µM
[7] = second compound 0.0316 µM, first compound 0.0316 µM
[8] = second compound 0.0316 µM, first compound 0.1 µM
[9] = second compound 0.0316 µM, first compound 0.316 µM
[10] = second compound 0.0316 µM, first compound 1 µM
[11] = second compound 0.0316 µM, first compound 3.16 µM
[12] = second compound 0.0316 µM, first compound 10 µM
[13] = second compound 0.1 µM, first compound 0.0316 µM
[14] = second compound 0.1 µM, first compound 0.1 µM
[15] = second compound 0.1 µM, first compound 0.316 µM
[16] = second compound 0.1 µM, first compound 1 µM
[17] = second compound 0.1 µM, first compound 3.16 µM
[18] = second compound 0.1 µM, first compound 10 µM
[19] = second compound 0.316 µM, first compound 0.0316 µM
[20] = second compound 0.316 µM, first compound 0.1 µM
[21] = second compound 0.316 µM, first compound 0.316 µM
[22] = second compound 0.316 µM, first compound 1 µM
[23] = second compound 0.316 µM, first compound 3.16 µM
[24] = second compound 0.316 µM, first compound 10 µM
[25] = second compound 1 µM, first compound 0.0316 µM
[26] = second compound 1 µM, first compound 0.1 µM
[27] = second compound 1 µM, first compound 0.316 µM
[28] = second compound 1 µM, first compound 1 µM
[29] = second compound 1 µM, first compound 3.16 µM
[30] = second compound 1 µM, first compound 10 µM
[31] = second compound 3.16 µM, first compound 0.0316 µM
[32] = second compound 3.16 µM, first compound 0.1 µM
[33] = second compound 3.16 µM, first compound 0.316 µM
[34] = second compound 3.16 µM, first compound 1 µM
[35] = second compound 3.16 µM, first compound 3.16 µM
[36] = second compound 3.16 µM, first compound 10 µM
[37] = second compound 10 µM, first compound 0.0316 µM
[38] = second compound 10 µM, first compound 0.1 µM
[39] = second compound 10 µM, first compound 0.316 µM
[40] = second compound 10 µM, first compound 1 µM
[41] = second compound 10 µM, first compound 3.16 µM
[42] = second compound 10 µM, first compound 10 µM
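Further: spheroids exposed to drugs for seven days before measurement.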
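Wherever viability, T/C is given: percent viability relative to DMSO vehicle control wells taken as 100%.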

SMILES: Nc1ccn(C2OC(CO)C(O)C2(F)F)c(=O)n1 (stereo not drawn) + COC1C(OC(N)=O)C(O)C(Oc2ccc3c(O)c(NC(=O)c4ccc(O)c(CC=C(C)C)c4)c(=O)oc3c2C)OC1(C)C
- IC50 [1]: < 31.6 nM
- IC50 [2]: < 31.6 nM
- IC50 [3]: < 31.6 nM
- IC50 [4]: < 31.6 nM
- IC50 [5]: < 31.6 nM
- IC50 [6]: < 31.6 nM
- viability, T/C [7]: 14.4%
- viability, T/C [8]: 8.27%
- viability, T/C [9]: 11.6%
- viability, T/C [10]: 11.3%
- viability, T/C [11]: 11.7%
- viability, T/C [12]: 12.9%
- viability, T/C [13]: 12.6%
- viability, T/C [14]: 11.2%
- viability, T/C [15]: 10.2%
- viability, T/C [16]: 11.4%
- viability, T/C [17]: 11.2%
- viability, T/C [18]: 10.5%
- viability, T/C [19]: 10.3%
- viability, T/C [20]: 9.75%
- viability, T/C [21]: 10.9%
- viability, T/C [22]: 11%
- viability, T/C [23]: 15.1%
- viability, T/C [24]: 10.2%
- viability, T/C [25]: 12%
- viability, T/C [26]: 11.9%
- viability, T/C [27]: 13.1%
- viability, T/C [28]: 13.4%
- viability, T/C [29]: 11.2%
- viability, T/C [30]: 14.5%
- viability, T/C [31]: 12.2%
- viability, T/C [32]: 15.2%
- viability, T/C [33]: 11.4%
- viability, T/C [34]: 10.9%
- viability, T/C [35]: 11%
- viability, T/C [36]: 11.1%
- viability, T/C [37]: 13.2%
- viability, T/C [38]: 10.8%
- viability, T/C [39]: 12.5%
- viability, T/C [40]: 12.4%
- viability, T/C [41]: 11.9%
- viability, T/C [42]: 12%

SMILES: CCc1c2c(nc3ccc(O)cc13)-c1cc3c(c(=O)n1C2)COC(=O)[C@]3(O)CC
- viability, T/C (compound 0.00316 µM): 34.1% and 23.5% and 36.2%
- viability, T/C (compound 0.01 µM): 12.7% and 10.6% and 14.8%
- viability, T/C (compound 0.0316 µM): 13% (2×) and 7.69%
- viability, T/C (compound 0.1 µM): 5.61% and 3.22% and 6.06%
- viability, T/C (compound 0.316 µM): 2.43% and 3.16% and 3.18%
- viability, T/C (compound 1 µM): 1.57% and 1.32% and 2.53%
- IC50 (curve of compound): < 3.16 nM

SMILES: COc1cc(C2c3cc4c(cc3C(OC3OC5COC(C)OC5C(O)C3O)C3COC(=O)C23)OCO4)cc(OC)c1O (stereo not drawn) + Cc1cccc(N(C)C(=O)C2C(O)CCN2c2nc(C)cc(C(F)(F)F)c2C#N)c1
- IC50 [1]: 1500 nM
- IC50 [2]: 1520 nM
- IC50 [3]: 1360 nM
- IC50 [4]: 1300 nM
- IC50 [5]: 1070 nM
- IC50 [6]: 886 nM
- viability, T/C [7]: 97.9%
- viability, T/C [8]: 108%
- viability, T/C [9]: 87.6%
- viability, T/C [10]: 66.1%
- viability, T/C [11]: 23.4%
- viability, T/C [12]: 10.1%
- viability, T/C [13]: 102%
- viability, T/C [14]: 99.5%
- viability, T/C [15]: 89.6%
- viability, T/C [16]: 65.8%
- viability, T/C [17]: 24%
- viability, T/C [18]: 11.7%
- viability, T/C [19]: 101%
- viability, T/C [20]: 102%
- viability, T/C [21]: 87.7%
- viability, T/C [22]: 61.5%
- viability, T/C [23]: 21.8%
- viability, T/C [24]: 9.93%
- viability, T/C [25]: 111%
- viability, T/C [26]: 104%
- viability, T/C [27]: 88.3%
- viability, T/C [28]: 60.6%
- viability, T/C [29]: 21.1%
- viability, T/C [30]: 11.1%
- viability, T/C [31]: 106%
- viability, T/C [32]: 92.9%
- viability, T/C [33]: 82.1%
- viability, T/C [34]: 52.5%
- viability, T/C [35]: 23.1%
- viability, T/C [36]: 13.2%
- viability, T/C [37]: 111%
- viability, T/C [38]: 105%
- viability, T/C [39]: 78.5%
- viability, T/C [40]: 47%
- viability, T/C [41]: 21.7%
- viability, T/C [42]: 10.5%

SMILES: COc1cccc(OCCCN)c1-c1cc(Nc2cnc(C#N)cn2)n[nH]1
- viability, T/C (compound 0.00316 µM): 99.7% (2×) and 101%
- viability, T/C (compound 0.01 µM): 70.4% and 75.3% and 73%
- viability, T/C (compound 0.0316 µM): 7.56% and 10.8% and 14.6%
- viability, T/C (compound 0.1 µM): 5.87% and 6.45% and 6.4%
- viability, T/C (compound 0.316 µM): 4.59% and 5.13% and 4.47%
- viability, T/C (compound 1 µM): 4.4% and 5.18% and 4.15%
- IC50 (curve of compound): 14.5 nM and 15.7 nM and 15.8 nM
